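GI50 is the concentration that inhibits growth by half. TGI denotes the concentration required for complete inhibition of growth.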
Tests used:
Test in all cases: growth of human tumour cells (NCI), 384-well format
786-0 renal = tested on: 786-0 renal
A498 renal = tested on: A498 renal
A549 NSCLC = tested on: A549 NSCLC
ACHN renal = tested on: ACHN renal
BT-549 breast = tested on: BT-549 breast
CAKI-1 renal = tested on: CAKI-1 renal
CCRF-CEM leukemia = tested on: CCRF-CEM leukemia
COLO 205 colon = tested on: COLO 205 colon
DU-145 prostate = tested on: DU-145 prostate
EKVX NSCLC = tested on: EKVX NSCLC
HCC-2998 colon = tested on: HCC-2998 colon
HCT-116 colon = tested on: HCT-116 colon
HCT-15 colon = tested on: HCT-15 colon
HL-60(TB) leukemia = tested on: HL-60(TB) leukemia
HOP-62 NSCLC = tested on: HOP-62 NSCLC
HOP-92 NSCLC = tested on: HOP-92 NSCLC
HS 578T breast = tested on: HS 578T breast
HT29 colon = tested on: HT29 colon
IGROV1 ovarian = tested on: IGROV1 ovarian
KM12 colon = tested on: KM12 colon
LOX IMVI melanoma = tested on: LOX IMVI melanoma
M14 melanoma = tested on: M14 melanoma
MALME-3M melanoma = tested on: MALME-3M melanoma
MCF7 breast = tested on: MCF7 breast
MDA-MB-231 breast = tested on: MDA-MB-231 breast
MDA-MB-435 melanoma = tested on: MDA-MB-435 melanoma
MDA-MB-468 breast = tested on: MDA-MB-468 breast
MOLT-4 leukemia = tested on: MOLT-4 leukemia
NCI-H226 lung = tested on: NCI-H226 lung
NCI-H23 lung = tested on: NCI-H23 lung
NCI-H322M lung = tested on: NCI-H322M lung
NCI-H460 NSCLC = tested on: NCI-H460 NSCLC
NCI-H522 lung = tested on: NCI-H522 lung
NCI/ADR-RES ovarian = tested on: NCI/ADR-RES ovarian
OVCAR-3 ovarian = tested on: OVCAR-3 ovarian
OVCAR-4 ovarian = tested on: OVCAR-4 ovarian
OVCAR-5 ovarian = tested on: OVCAR-5 ovarian
OVCAR-8 ovarian = tested on: OVCAR-8 ovarian
PC-3 prostate = tested on: PC-3 prostate
RPMI-8226 leukemia = tested on: RPMI-8226 leukemia
RXF 393 renal = tested on: RXF 393 renal
SF-268 CNS = tested on: SF-268 CNS
SF-295 CNS = tested on: SF-295 CNS
SF-539 CNS = tested on: SF-539 CNS
SK-MEL-28 melanoma = tested on: SK-MEL-28 melanoma
SK-MEL-5 melanoma = tested on: SK-MEL-5 melanoma
SK-OV-3 ovarian = tested on: SK-OV-3 ovarian
SN12C renal = tested on: SN12C renal
SNB-19 CNS = tested on: SNB-19 CNS
SNB-75 CNS = tested on: SNB-75 CNS
SR leukemia = tested on: SR leukemia
SW-620 colon = tested on: SW-620 colon
T-47D breast = tested on: T-47D breast
TK-10 renal = tested on: TK-10 renal
U251 glioblastoma = tested on: U251 glioblastoma
UACC-257 melanoma = tested on: UACC-257 melanoma
UACC-62 melanoma = tested on: UACC-62 melanoma
UO-31 renal = tested on: UO-31 renal
K-562 leukemia = tested on: K-562 leukemia

## CCN(c1cc(-c2ccc(CN3CCOCC3)cc2)cc(C(=O)NCc2c(C)cc(C)[nH]c2=O)c1C)C1CCOCC1
786-0 renal
  GI50: > 85.4 µM
  TGI: > 100 µM
A498 renal
  GI50: > 81.8 µM
  TGI: > 100 µM
A549 NSCLC
  GI50: > 76.9 µM
  TGI: > 100 µM
ACHN renal
  GI50: > 100 µM
  TGI: > 100 µM
BT-549 breast
  GI50: > 37.1 µM
  TGI: > 63.9 µM
CAKI-1 renal
  GI50: > 69.4 µM
  TGI: > 100 µM
CCRF-CEM leukemia
  GI50: > 100 µM
  TGI: > 100 µM
COLO 205 colon
  GI50: > 100 µM
  TGI: > 100 µM
DU-145 prostate
  GI50: > 100 µM
  TGI: > 100 µM
EKVX NSCLC
  GI50: > 100 µM
  TGI: > 100 µM
HCC-2998 colon
  GI50: > 100 µM
  TGI: > 100 µM
HCT-116 colon
  GI50: > 77.3 µM
  TGI: > 100 µM
HCT-15 colon
  GI50: 98.3 µM
  TGI: > 100 µM
HL-60(TB) leukemia
  GI50: > 49.7 µM
  TGI: > 85.8 µM
HOP-62 NSCLC
  GI50: > 100 µM
  TGI: > 100 µM
HOP-92 NSCLC
  GI50: > 90.3 µM
  TGI: > 100 µM
HS 578T breast
  GI50: > 100 µM
  TGI: > 100 µM
HT29 colon
  GI50: > 100 µM
  TGI: > 100 µM
IGROV1 ovarian
  GI50: > 91.5 µM
  TGI: > 100 µM
KM12 colon
  GI50: > 100 µM
  TGI: > 100 µM
LOX IMVI melanoma
  GI50: > 51.5 µM
  TGI: > 100 µM
M14 melanoma
  GI50: > 100 µM
  TGI: > 100 µM
MALME-3M melanoma
  GI50: > 100 µM
  TGI: > 100 µM
MCF7 breast
  GI50: > 100 µM
  TGI: > 100 µM
MDA-MB-231 breast
  GI50: > 100 µM
  TGI: > 100 µM
MDA-MB-435 melanoma
  GI50: > 100 µM
  TGI: > 100 µM
MDA-MB-468 breast
  GI50: > 100 µM
  TGI: > 100 µM
MOLT-4 leukemia
  GI50: 68.4 µM
  TGI: > 100 µM
NCI-H226 lung
  GI50: > 100 µM
  TGI: > 100 µM
NCI-H23 lung
  GI50: > 100 µM
  TGI: > 100 µM
NCI-H322M lung
  GI50: > 100 µM
  TGI: > 100 µM
NCI-H460 NSCLC
  GI50: > 100 µM
  TGI: > 100 µM
NCI-H522 lung
  GI50: > 100 µM
  TGI: > 100 µM
NCI/ADR-RES ovarian
  GI50: > 100 µM
  TGI: > 100 µM
OVCAR-3 ovarian
  GI50: > 100 µM
  TGI: > 100 µM
OVCAR-4 ovarian
  GI50: > 100 µM
  TGI: > 100 µM
OVCAR-5 ovarian
  GI50: > 100 µM
  TGI: > 100 µM
OVCAR-8 ovarian
  GI50: > 100 µM
  TGI: > 100 µM
PC-3 prostate
  GI50: > 100 µM
  TGI: > 100 µM
RPMI-8226 leukemia
  GI50: 1.39 µM
  TGI: > 100 µM
RXF 393 renal
  GI50: > 60.3 µM
  TGI: > 100 µM
SF-268 CNS
  GI50: > 100 µM
  TGI: > 100 µM
SF-295 CNS
  GI50: > 100 µM
  TGI: > 100 µM
SF-539 CNS
  GI50: > 100 µM
  TGI: > 100 µM
SK-MEL-28 melanoma
  GI50: > 100 µM
  TGI: > 100 µM
SK-MEL-5 melanoma
  GI50: > 100 µM
  TGI: > 100 µM
SK-OV-3 ovarian
  GI50: > 100 µM
  TGI: > 100 µM
SN12C renal
  GI50: > 100 µM
  TGI: > 100 µM
SNB-19 CNS
  GI50: > 100 µM
  TGI: > 100 µM
SNB-75 CNS
  GI50: > 100 µM
  TGI: > 100 µM
SR leukemia
  GI50: > 75.7 µM
  TGI: > 100 µM
SW-620 colon
  GI50: > 100 µM
  TGI: > 100 µM
T-47D breast
  GI50: > 100 µM
  TGI: > 100 µM
TK-10 renal
  GI50: > 100 µM
  TGI: > 100 µM
U251 glioblastoma
  GI50: > 100 µM
  TGI: > 100 µM
UACC-257 melanoma
  GI50: > 100 µM
  TGI: > 100 µM
UACC-62 melanoma
  GI50: > 100 µM
  TGI: > 100 µM
UO-31 renal
  GI50: > 100 µM
  TGI: > 100 µM

## Cc1nc2ccc(NC(=O)CCNC(=O)CCCc3ccc(CC(C(=O)O)C(=O)O)cc3)cc2s1
786-0 renal
  GI50: > 100 µM
  TGI: > 100 µM
A498 renal
  GI50: > 100 µM
  TGI: > 100 µM
A549 NSCLC
  GI50: > 100 µM
  TGI: > 100 µM
ACHN renal
  GI50: > 100 µM
  TGI: > 100 µM
BT-549 breast
  GI50: > 100 µM
  TGI: > 100 µM
CAKI-1 renal
  GI50: > 100 µM
  TGI: > 100 µM
CCRF-CEM leukemia
  GI50: > 100 µM
  TGI: > 100 µM
COLO 205 colon
  GI50: > 100 µM
  TGI: > 100 µM
DU-145 prostate
  GI50: > 100 µM
  TGI: > 100 µM
EKVX NSCLC
  GI50: > 100 µM
  TGI: > 100 µM
HCC-2998 colon
  GI50: > 100 µM
  TGI: > 100 µM
HCT-116 colon
  GI50: > 100 µM
  TGI: > 100 µM
HCT-15 colon
  GI50: > 100 µM
  TGI: > 100 µM
HL-60(TB) leukemia
  GI50: > 100 µM
  TGI: > 100 µM
HOP-62 NSCLC
  GI50: > 100 µM
  TGI: > 100 µM
HOP-92 NSCLC
  GI50: > 100 µM
  TGI: > 100 µM
HS 578T breast
  GI50: > 100 µM
  TGI: > 100 µM
HT29 colon
  GI50: > 100 µM
  TGI: > 100 µM
IGROV1 ovarian
  GI50: > 100 µM
  TGI: > 100 µM
K-562 leukemia
  GI50: > 100 µM
  TGI: > 100 µM
KM12 colon
  GI50: > 100 µM
  TGI: > 100 µM
LOX IMVI melanoma
  GI50: > 100 µM
  TGI: > 100 µM
M14 melanoma
  GI50: > 100 µM
  TGI: > 100 µM
MALME-3M melanoma
  GI50: > 100 µM
  TGI: > 100 µM
MCF7 breast
  GI50: > 100 µM
  TGI: > 100 µM
MDA-MB-231 breast
  GI50: > 100 µM
  TGI: > 100 µM
MDA-MB-435 melanoma
  GI50: > 100 µM
  TGI: > 100 µM
MDA-MB-468 breast
  GI50: > 100 µM
  TGI: > 100 µM
MOLT-4 leukemia
  GI50: > 100 µM
  TGI: > 100 µM
NCI-H226 lung
  GI50: > 100 µM
  TGI: > 100 µM
NCI-H23 lung
  GI50: > 100 µM
  TGI: > 100 µM
NCI-H322M lung
  GI50: > 100 µM
  TGI: > 100 µM
NCI-H460 NSCLC
  GI50: > 100 µM
  TGI: > 100 µM
NCI-H522 lung
  GI50: > 100 µM
  TGI: > 100 µM
NCI/ADR-RES ovarian
  GI50: > 100 µM
  TGI: > 100 µM
OVCAR-3 ovarian
  GI50: > 100 µM
  TGI: > 100 µM
OVCAR-4 ovarian
  GI50: > 100 µM
  TGI: > 100 µM
OVCAR-8 ovarian
  GI50: > 100 µM
  TGI: > 100 µM
PC-3 prostate
  GI50: > 100 µM
  TGI: > 100 µM
RPMI-8226 leukemia
  GI50: > 100 µM
  TGI: > 100 µM
RXF 393 renal
  GI50: > 100 µM
  TGI: > 100 µM
SF-268 CNS
  GI50: > 100 µM
  TGI: > 100 µM
SF-295 CNS
  GI50: > 100 µM
  TGI: > 100 µM
SF-539 CNS
  GI50: > 100 µM
  TGI: > 100 µM
SK-MEL-28 melanoma
  GI50: > 100 µM
  TGI: > 100 µM
SK-MEL-5 melanoma
  GI50: > 100 µM
  TGI: > 100 µM
SK-OV-3 ovarian
  GI50: > 100 µM
  TGI: > 100 µM
SN12C renal
  GI50: > 100 µM
  TGI: > 100 µM
SNB-19 CNS
  GI50: > 100 µM
  TGI: > 100 µM
SNB-75 CNS
  GI50: > 100 µM
  TGI: > 100 µM
SR leukemia
  GI50: > 100 µM
  TGI: > 100 µM
SW-620 colon
  GI50: > 100 µM
  TGI: > 100 µM
T-47D breast
  GI50: > 100 µM
  TGI: > 100 µM
TK-10 renal
  GI50: > 100 µM
  TGI: > 100 µM
U251 glioblastoma
  GI50: > 100 µM
  TGI: > 100 µM
UACC-257 melanoma
  GI50: > 100 µM
  TGI: > 100 µM
UACC-62 melanoma
  GI50: > 100 µM
  TGI: > 100 µM
UO-31 renal
  GI50: > 100 µM
  TGI: > 100 µM

Reference: PubChem BioAssay (NCI)
